In patent US8222242B2, “Nitric oxide releasing compounds” (The Regents of the University of California, priority 2008, dated 2012):
Where two headings read alike, the source gives them in different places.

Legend:
rabbits [1] = assay: Rabbits with phenylephrine-induced hypertension; format: in vivo, rabbit
Procedure: Phenylephrine was given by continuous intravenous infusion to an anesthetized rabbit at increasing rates from 5 to 20 μg/kg/min; the rabbit remained on the highest phenylephrine infusion rate until the end of the experiment (darker arrows with “A”-shaped arrowheads indicate start times of each increasing dose). At 49 minutes, an infusion of NO-Cbi was started at a rate of 3 μg/kg/min (2.9 nmol/kg/min), with the infusion rate doubled at 58 minutes (lighter arrows with triangular-shaped arrowheads indicate start times of infusions). Systolic and diastolic blood pressure recordings from an intra-arterial catheter are shown. Changes in total hemoglobin, oxyhemoglobin, and deoxyhemoglobin concentrations were measured by continuous wave near-infrared spectroscopy over the left thigh muscle. Phenylephrine caused a progressive decrease in total hemoglobin and oxyhemoglobin concentrations, which reversed within seconds of starting the NO-Cbi infusion.
Decreased tissue oxygenation as occurred in the experiments shown in FIGS. 7 and 8 would clearly be an undesirable effect of treating hypertensive patients with NO-Cbi. However, lowering blood pressure of a hypertensive patient is very different from lowering blood pressure of a normotensive subject, and the experiments described in Example 15 rabbits with normal or low (due to anesthesia) blood pressure. To simulate a hypertensive state, the blood pressure of rabbits was raised using a continuous intravenous infusion of phenylephrine, a peripheral vasoconstrictor (FIG. 9). As the rabbit's blood pressure increased above normal, tissue perfusion and oxygenation decreased, as evidenced by a decrease in total hemoglobin and oxyhemoglobin concentrations in muscle.
Thus, in an animal with drug-induced hypertension, NO-Cbi improved tissue perfusion and oxygenation as it lowered blood pressure.

[2] = incubated with excess heme; cited from earlier work
rabbits [3] = assay: Continuous intravenous infusion in anesthetized rabbits: systemic hemodynamics and gas exchange; format: in vivo, rabbit
Procedure: NO-Cbi was given by intravenous infusion at a dose of 5 μg/kg/min (4.8 nmol/kg/min) to a 3.5 kg rabbit. […] The infusion was stopped at 10 minutes, but, because of drawing blood through the arterial line for blood gas analysis, the first measurement of blood pressure occurred 6 minutes later. Full recovery required 12 minutes, but it is possible that the initial rate of recovery was faster than shown in the graph. A small overshoot occurred in both systolic and diastolic blood pressure, before returning to pre-treatment levels.
Continuous intravenous NO-Cbi infusions were performed in anesthetized rabbits with systemic hemodynamic monitoring, continuous gas exchange analysis, and diffuse optical spectroscopy (DOS) and continuous wave near-infrared spectroscopy monitoring. DOS monitoring was over muscle as a representation of peripheral tissue, and continuous wave spectroscopy was over muscle and brain region. Six animals have been studied to date, varying NO-Cbi infusion rates in each animal between 1.7 and 6.9 μg/kg/min (1.6 and 6.7 nmol/kg/min).
The blood pressure of rabbits is similar to that of humans, but because of anesthesia, initial blood pressures in the rabbits were on average ˜80/60 mm Hg (FIG. 6). […] Blood pressure returned to baseline within 12 minutes of stopping the infusion, and starting and stopping the infusion repeatedly yielded similar results.

[4] = for change of spectrum: room temperature, open to air
Procedure: NO-Cbi was diluted 100-fold into DMEM containing 10% FBS, transferred to a cuvette, and analyzed immediately by spectrophotometry between 300 and 600 nm (curve a). Spectra were obtained every 30 minutes for 3 hours, generating the family of curves, with curve b being the 3 hour spectrum; in the inset, curve b is the spectrum at 16 hours. The cuvette was open to air and kept at room temperature. The same experiment was repeated two times with similar results.
NO-Cbi was diluted 100-fold in water, PBS, or DMEM containing 10% FBS to a final concentration of 50 uM. It was analyzed spectrophotometrically between 300 and 600 nm in a Kontron 860 spectrophotometer, and by mass spectroscopy using a LCQ classic ion-trap-type mass spectrometer (Thermo-Finnigan) at 160° C. capillary temperature and 5000V spray voltage. The mass spectrometry data were acquired in profile mode and analyzed on Xcalibur software.

[5] = tested on: Malpighian tubules isolated from D. melanogaster; assay: Malpighian tubule fluid secretion; set-up: species or system Drosophila melanogaster
Procedure: Malpighian tubules are the osmoregulatory organs of D. melanogaster, corresponding to vertebrate kidneys. Tubular fluid secretion is stimulated by NO and cGMP, and fluid secretion rates were measured as described previously (Broderick K E et al. (2005) J. Biol. Chem. 280:8678-85). Briefly, the Malpighian tubule pair of a fly was resected and suspended in mineral oil. […]
Malpighian tubules are an excellent model for studying the effects of a drug on an intact organ system (Broderick K E et al. (2003) Am. J. Physiol. Cell Physiol. 285:C1207-18). […] Deta-NONOate may not be affected as much by cysteine in the medium, because it has a slower NO release rate and the intact drug can be transported intracellularly before much NO is released.

[6] = tested on: vasodilator-stimulated phosphoprotein (VASP) phosphorylated on Ser239 in CS-54 rat vascular smooth muscle cells; assay: VASP phosphorylation in CS-54 cells (immunoblot); format: cell-based
Procedure: CS-54 rat vascular smooth muscle cells were treated with the indicated concentrations of NO-Cbi for 1 hour (A), or 10 μM NO-Cbi for the indicated times (B and C). […] In A and B, “Con” refers to control, which was cells treated with water. As indicated, the effects of 30 μM cobinamide (Cbi) and 100 μM 8-CPT-cGMP (cGMP) are shown for comparison. In A and B, similar results were obtained in two other experiments.
Briefly, cells treated with an NO-releasing agent were extracted rapidly in a sodium dodecyl sulfate (SDS) containing sample buffer, and the cell extracts were subjected to SDS-polyacrylamide gel electrophoresis. Phospho-VASP was assessed by immunoblotting using an antibody specific for VASP phosphorylated on Ser259 (Smolenski A et al. (1998) J. Biol. Chem. 273:20029-35).
To determine if NO released from NO-Cbi can have a physiologic effect in cultured cells, vasodilator-stimulated phosphoprotein (VASP) phosphorylation was assessed in CS-54 cells.

D. melanogaster = assay: Viability of injected D. melanogaster; conditions: 1 μl injected; 1 mM (ascorbic acid 5 mM); observed 48 h
Procedure: (A) Tubular secretion rates of Malpighian tubules isolated from D. melanogaster were measured, using half-strength Schneider's medium. Basal tubular secretion was measured at 0, 10, and 20 minutes; at 20 minutes (depicted by the arrow) 1 mM cobinamide (Cbi, open circles), 1 mM NO-Cbi (filled circles), 0.5 mM Deta-NONOate (diamonds), or 100 μM 8-CPT-cGMP (inverted triangles) were added. Results are the mean±S.D. of three independent experiments performed on Malpighian tubule pairs from 10 flies. […] (B). Flies were injected with 1 μl of 1 mM cobinamide (Cbi, open circles), 1 mM NO-Cbi (filled circles), 0.5 mM Deta-NONOate (diamonds), or 1 mM spermine NONOate (squares). […] The data are plotted as a Kaplan-Meier survival curve, and are the mean±SD of three experiments, with 10 flies per condition per experiment. […] (C). Flies were injected with 1 μl of water (control, open bar), 1 mM cobinamide (Cbi, grey bar), or 1 mM NO-Cbi (black bars). Flies were killed and extracts were prepared at 3 hours for the water- and cobinamide-injected flies, and at the indicated times for the NO-Cbi-injected flies. Nitrite and nitrate in the extracts were measured using an enhanced Griess reagent.
The fluid volume of a fly is […], and thus, the injected agent was diluted about 10-fold. […]

[7] = continuous gas exchange monitoring

CC1=C2[N+]3=C(C=C4[N+]5=C(C(C)=C6[N]7C(C(CC(N)=O)C6(C)CCC(=O)NCC(C)O)C6(C)[N+](=C1C(CCC(N)=O)C6(C)CC(N)=O)[Co-3]753[N]=O)C(CCC(N)=O)C4(C)C)C(CCC(N)=O)C2(C)CC(N)=O (stereo not drawn) [NO-Cbi, nitrosyl cobinamide]
blood pressure (rabbits [1]; NO-Cbi infusion 3 μg/kg/min during phenylephrine, within seconds): began to decrease
total tissue hemoglobin and oxyhemoglobin concentrations (rabbits [1]; NO-Cbi infusion during phenylephrine): increased
half-life [2]: short
time to new steady-state of blood pressure (rabbits [3]; 5 μg/kg/min intravenous infusion): 5 min
time until systolic and diastolic blood pressures began to decrease (rabbits [3]; 5 μg/kg/min intravenous infusion, 3.5 kg rabbit): ≤ 15 s
time required for full recovery of blood pressure (rabbits [3]; 5 μg/kg/min, infusion stopped at 10 minutes): 12 min
arterial-venous oxygen differences (rabbits [3]; [7]): increased arterial-venous oxygen differences
end tidal CO2 (rabbits [3]; [7]): decreased end tidal CO2
effects on blood pressure compared with nitroprusside (rabbits [3]; equimolar amounts): more rapid and pronounced than those with equimolar amounts of nitroprusside
cardiac output (direct Fick method) (rabbits [3]; intravenous infusion): decreased
heart rate (rabbits [3]; intravenous infusion): did not change significantly
time for blood pressure to return to baseline after stopping the infusion (rabbits [3]; intravenous infusion): ≤ 12 min
blood pressure (rabbits [3]; intravenous infusion 1.7 to 6.9 μg/kg/min): marked infusion-rate-dependent decrease in blood pressure
physiological half-life of NO-Cbi (rabbits [3]; suggested by return of blood pressure): 5-6 minutes
time for spectrum to change to that of cobinamide ([4]; DMEM containing 10% FBS): about 3 h
effect on NO-Cbi's half-life ([4]; buffer): significantly reduced
half-life ([4]; buffer): ~1.5 h
change of spectrum ([4]; phosphate-buffered saline (PBS)): little spectral change
change of spectrum ([4]; water, 16 hours): did not change
rate of tubular secretion relative to cobinamide-treated tubules ([5]; 1 mM, 70 minute time point (50 minutes after adding drugs), half-strength Schneider's medium): 1.6 times
fluid secretion ([5]; 1 mM, half-strength Schneider's medium): stimulated fluid secretion to a similar extent as 100 μM 8-CPT-cGMP, but somewhat less than 500 μM Deta-NONOate
fluid secretion ([5]; full strength of Schneider's medium): no effect
course of VASP phosphorylation after the maximum ([6]; 10 μM NO-Cbi): declined over the ensuing 4 hours
time at which effect on VASP phosphorylation could be observed ([6]; 10 μM NO-Cbi): 15 min
time of maximal effect on VASP phosphorylation ([6]; 10 μM NO-Cbi): 30 to 60 min
VASP phosphorylation ([6]; 1 to 30 μM, 1 hour, CS-54 cells): induced VASP phosphorylation
fly killing / toxicity to flies (D. melanogaster): killed the flies as effectively as 1 mM spermine NONOate
